Test results from ChEMBL document CHEMBL1138980, “Triazolo[1,5-a]pyrimidines as novel CDK2 inhibitors: protein structure-guided design and SAR” (Bioorg Med Chem Lett, 2006).

Tests used:
[1] = molecular target: T1, Serine/threonine-protein kinase Chk1 (Homo sapiens, UniProt O14757); test: Inhibition of Chk1
T1 sequence (O14757 whole entry): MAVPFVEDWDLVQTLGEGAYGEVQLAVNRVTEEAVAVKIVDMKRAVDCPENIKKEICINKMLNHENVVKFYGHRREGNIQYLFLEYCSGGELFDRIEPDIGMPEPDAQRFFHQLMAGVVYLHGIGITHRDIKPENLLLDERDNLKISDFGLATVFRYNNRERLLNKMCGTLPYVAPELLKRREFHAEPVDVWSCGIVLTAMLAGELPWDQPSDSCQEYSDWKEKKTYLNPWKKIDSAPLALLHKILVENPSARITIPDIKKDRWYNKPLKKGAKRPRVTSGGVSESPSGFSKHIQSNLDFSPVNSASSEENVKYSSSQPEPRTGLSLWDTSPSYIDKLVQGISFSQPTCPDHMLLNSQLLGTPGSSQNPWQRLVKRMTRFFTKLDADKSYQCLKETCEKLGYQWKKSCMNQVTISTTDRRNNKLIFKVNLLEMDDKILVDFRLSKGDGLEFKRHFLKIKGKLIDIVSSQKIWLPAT

[2] = Inhibition of PDK1; set-up: species or system Homo sapiens
[3] = molecular target: Glycogen synthase kinase-3 beta (Homo sapiens, UniProt P49841); test: Inhibition of GSK3-beta using 10 uM ATP
Chain of Glycogen synthase kinase-3 beta (P49841 whole entry): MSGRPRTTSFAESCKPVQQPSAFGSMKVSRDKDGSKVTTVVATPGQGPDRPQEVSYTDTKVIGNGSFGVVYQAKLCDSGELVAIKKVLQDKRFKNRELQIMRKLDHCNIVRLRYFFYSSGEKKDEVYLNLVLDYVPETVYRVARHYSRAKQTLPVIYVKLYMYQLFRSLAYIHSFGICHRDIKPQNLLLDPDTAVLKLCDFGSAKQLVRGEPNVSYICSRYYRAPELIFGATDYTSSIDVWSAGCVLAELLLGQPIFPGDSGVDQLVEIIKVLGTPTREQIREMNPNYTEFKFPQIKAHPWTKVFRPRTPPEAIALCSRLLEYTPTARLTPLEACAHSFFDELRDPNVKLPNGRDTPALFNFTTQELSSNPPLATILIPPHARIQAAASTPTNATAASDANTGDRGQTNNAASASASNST

HCT-116 = test: Antiproliferative activity against HCT116 colon cancer cell line; type: functional; conditions: Homo sapiens
[4] = molecular target: Cyclin-dependent kinase 1 (Homo sapiens, UniProt P06493); test: Inhibition of CDK1 using 100 uM ATP
Chain of Cyclin-dependent kinase 1 (P06493 whole entry): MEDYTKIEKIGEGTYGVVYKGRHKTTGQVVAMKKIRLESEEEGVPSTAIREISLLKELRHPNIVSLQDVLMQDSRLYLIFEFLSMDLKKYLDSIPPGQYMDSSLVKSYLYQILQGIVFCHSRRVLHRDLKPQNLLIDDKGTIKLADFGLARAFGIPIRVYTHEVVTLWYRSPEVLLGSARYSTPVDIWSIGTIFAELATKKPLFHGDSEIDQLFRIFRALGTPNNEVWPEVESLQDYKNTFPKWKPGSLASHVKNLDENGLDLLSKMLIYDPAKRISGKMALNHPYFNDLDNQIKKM

[5] = molecular target: Cyclin-dependent kinase 2 (Homo sapiens, UniProt P24941); test: Inhibition of CDK2 using 100 uM ATP

SMILES	IC50 [1]	IC50 [2]	IC50 [3]	GI50 (HCT-116)	IC50 [4]	IC50 [5]
NS(=O)(=O)c1ccc(Nc2nc(OCC3CCCCC3)c3nc[nH]c3n2)cc1	< 0.5 µM	< 0.5 µM	0.04 µM	–	–	–
NS(=O)(=O)c1ccc(Nc2cc(N[C@H]3CC[C@H](O)CC3)nc3ncnn23)cc1	–	–	–	39 µM	–	–
N[C@H]1CC[C@H](Nc2cc(Nc3ccc(S(=O)(=O)c4ccccc4)cc3)n3ncnc3n2)CC1	–	–	50 µM	> 80 µM	4.3 µM	–
CCN(CC)c1cc(Nc2ccc(S(N)(=O)=O)cc2)n2ncnc2n1	–	–	11 µM	23 µM	3.4 µM	0.4 µM
NS(=O)(=O)c1ccc(Nc2cc(N[C@H]3CC[C@H](N)CC3)nc3ncnn23)cc1	–	43 µM	0.78 µM	> 80 µM	–	–
Brc1cccc(-c2cc(NCc3ccncc3)n3nccc3n2)c1	–	–	–	8 µM	–	–
CS(=O)(=O)c1ccc(Nc2cc(N[C@H]3CC[C@H](N)CC3)nc3ncnn23)cc1	–	–	43 µM	> 80 µM	16 µM	–
NS(=O)(=O)c1ccc(Nc2cc(OC3CCCCC3)nc3ncnn23)cc1	–	–	0.19 µM	25 µM	0.14 µM	–
NS(=O)(=O)c1ccc(Nc2cc(OCC3CCCCC3)nc3ncnn23)cc1	–	–	29 µM	–	–	–
CN(C)S(=O)(=O)c1ccc(Nc2cc(N[C@H]3CC[C@H](N)CC3)nc3ncnn23)cc1	21 µM	> 200 µM	20 µM	> 80 µM	5.6 µM	0.12 µM
NS(=O)(=O)c1ccc(Nc2cc(NC3CCCCC3)nc3ncnn23)cc1	–	–	0.97 µM	31 µM	–	–
